Where “and” joins values, the source holds several entries; their conditions need not be identical. Equal entries are not always repeated. Where two headings read alike, the source gives them in different places.
Experiments:
[1] = target: T1, TrBgl2 (Trichoderma reesei, UniProt O93785); assay: STD NMR ligand-observed binding; conditions: compound 500 µM, TrBgl2 20 µM; for binding to TrBgl2 by STD NMR: absence of isofagomine; for binding to TrBgl2 by STD NMR in presence of isofagomine: isofagomine 40 µM
Description: The samples contained 20 µM unlabelled TrBgl2, fragments at a concentration of 500 µM per compound and 100 µM sodium trimethylsilylpropanesulfonate (DSS) in 50 mM phosphate buffer containing 25 mM NaCl and 5% D2O at pH 6.0. The experiments were recorded by using a Bruker standard pulse sequence (stddiffesgp.3 [19]). The on-resonance frequency was set to 0.25 ppm and off-resonance irradiation was applied at 40 ppm. STD NMR spectra were collected with a total of 16 scans (NS), 5 s delay between the scans (d1), a saturation time of 4 s (d20) and 1.5 s acquisition time (AQ).

[2] = target: T1, TrBgl2; assay: Michaelis-Menten and covariation kinetics with MUG; format: biochemical
Description: Apparent KM and kcat values were calculated from a Michaelis–Menten curve fit to 9-point substrate titrations at a constant concentration of compounds. The covariation experiments used the same range of substrate concentrations across an activator and inhibitor concentration range. The data obtained from these experiments was fit to the nonessential activator and mixed-model inhibition equation, respectively.

[3] = target: T1, TrBgl2; assay: MUG cleavage fluorescent kinetic assay (AC50 / Amax / IC50); format: biochemical
Description: A fluorescent kinetic assay was performed for library screening of TrBgl2 using 500 µM 4-methylumbelliferyl-β-D-glucopyranoside (MUG) in a total volume of 150 µL per well. Compounds dissolved in DMSO were added to each well to yield a final concentration from 1 to 2 mM. The reactions were performed in 160 mM phosphate–citrate buffer in pH 6.0, initiated by adding 20 µL of the enzyme to give a final concentration of 100 nM and were assayed at 40°C. The fluorescent 4-methylumbelliferyl release was recorded continuously at 355 nm excitation and 460 nm emission for 20 s using a BMG Labtech POLARstar OPTIMA plate reader. Control experiments were performed to evaluate the possibility of interference from the intrinsic fluorescence of compounds in the library by repeating the assay in the absence of the enzyme.
(§1) Assays were carried out in a 96 well plate (Black Nunc F96 MicroWell Plates) at 40 and 45°C for TrBgl2 and CcBglA, respectively, in 160 mM phosphate–citrate buffer in pH 6.0 and 2.5% DMSO. Reactions were initiated by the addition of 20 µL of protein to a final concentration of 100 nM, followed by 5 s of shaking. The fluorescent 4-methylumbelliferyl release was recorded continuously at 355 nm excitation and 460 nm emission for 20 s using a BMG Labtech POLARstar OPTIMA plate reader. Rates were calculated using GraphPad Prism 5.0 as the slope of the curve of the collected data. Corrections were made to the detected gradients to adjust for the inner filter effect of MUG and convert the gradients into units of µmol min^−1 according to a standard curve for MUG. The initial slopes were fitted to sigmoidal dose-response curves using GraphPad Prism 5.0 and the AC50 values extracted. Inhibition of TrBgl2 by isofagomine (IC50) was determined in similar manner to the AC50 values.

[4] = Solubility of compound; format: physicochemical
[5] = system: E367Q TrBgl2; assay: Thermal shift assay (TSA); format: binding, Trichoderma reesei
Description: Thermal shift screens were performed in 96-well polypropylene PCR plates (Agilent 401334) with a final volume 25 µL/well. […] Melting data were collected using an Agilent Stratagene Mx3005P rtPCR machine ramping from 25 to 95°C at 30 s per degree. Data were analysed with a combination of the Agilent MxPro software, MTS [16], JTSA (http://paulsbond.co.uk/jtsa) and the DSF analysis spreadsheet in Excel.

[6] = target: T1, TrBgl2; assay: Protein-observed NMR chemical shift perturbation (1H-15N TROSY); format: binding; conditions: compound 8 mM (8 also 16 mM), 15N TrBgl2 120 µM
Description: For backbone chemical shift perturbations (CSPs), each sample was prepared with 120 µM ^15N isotope-labelled TrBgl2 or E367Q TrBgl2, 8 mM or 16 mM of compound 8 or 10, 5 mM of MUG substrate and 100 µM DSS in 50 mM TRIS buffer containing 100 mM NaCl and 10% D2O at pH 8.0. The final DMSO concentration was usually not above 3.8%(v/v). ^1H-^15N TROSY spectra of the enzyme with DMSO in the buffer were collected as controls. ^1H-^15N TROSY spectra were collected by using a Bruker standard pulse sequence (trosyetf3gpsi) with 128 scans (NS), 1.5 s delay between the scans (d1), 35 ppm spectra width (SW), 256-time domain data size (TD) and 117 ppm irradiation carrier frequency offset (O1P).
For IVL methyl group CSPs, each sample was prepared with 250 µM of ^15N, ^13C, ^2H and IVL methyl group specifically labelled TrBgl2, 8 mM of compound 8, in 50 mM TRIS buffer containing 100 mM NaCl and 10% D2O at pH 8.0. The final DMSO concentration was usually not above 3.8% (v/v). ^1H-^13C HSQC spectra of the enzyme with DMSO in the buffer were collected as controls. ^1H-^13C HSQC spectra were recorded by using a Bruker standard pulse sequence (hsqcctetgpsp) with 8 scans (NS), 1.5 s delay between the scans (d1), 30 ppm spectra width (SW), 256-time domain data size (TD) and 15 ppm irradiation carrier frequency offset (O1P).

[7] = system: CcBglA; assay: MUG cleavage assay on CcBglA (selectivity); format: biochemical, Clostridium cellulovorans; conditions: MUG 500 µM, titration 63 µM to 8 mM
Description: as §1

[8] = pH 6, titration of compound from 30 µM to 3.8 mM, substrate conc. 500 µM, read-out: Amax
[9] = titration of compound from 30 µM to 3.8 mM, substrate conc. 500 µM
[10] = pH 6, titration of compound from 63 µM to 8 mM, substrate conc. 500 µM, read-out: Amax
[11] = titration of compound from 63 µM to 8 mM, substrate conc. 500 µM
[12] = E367Q TrBgl2 in the presence of MUG (4 mM), compound 4 mM
[13] = apo E367Q TrBgl2, compound 4 mM, without MUG

T1 sequence (O93785 entry or part of it): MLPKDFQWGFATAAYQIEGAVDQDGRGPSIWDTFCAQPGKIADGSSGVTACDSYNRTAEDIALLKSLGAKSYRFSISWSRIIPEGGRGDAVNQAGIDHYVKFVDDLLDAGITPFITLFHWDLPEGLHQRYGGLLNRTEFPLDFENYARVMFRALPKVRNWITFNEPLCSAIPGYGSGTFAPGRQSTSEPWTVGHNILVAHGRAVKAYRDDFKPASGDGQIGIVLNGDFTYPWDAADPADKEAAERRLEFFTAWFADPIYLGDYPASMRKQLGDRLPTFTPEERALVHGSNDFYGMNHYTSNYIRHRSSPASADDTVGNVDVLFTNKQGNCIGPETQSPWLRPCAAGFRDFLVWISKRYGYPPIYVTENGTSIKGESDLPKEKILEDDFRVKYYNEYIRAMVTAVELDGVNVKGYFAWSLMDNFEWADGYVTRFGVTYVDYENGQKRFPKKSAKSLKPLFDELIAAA

| Emax [3, 8] [%] | AC50 [3, 9] [µM] | Emax [3, 10] [%] | AC50 [3, 11] [µM] | Compound | binding to TrBgl2 by STD NMR [1] | binding to TrBgl2 by STD NMR in presence of isofagomine [1] | further results |
| --- | --- | --- | --- | --- | --- | --- | --- |
| 155 | > 4000 | – | – | S=C(Nc1ccccc1Cl)N1CCOCC1 [Compound 3] | – | – | – |
| 139 | 1810 ± 96 | – | – | Cc1ccccc1NC(=S)N1CCOCC1 [Compound 4] | – | – | – |
| 160 | > 4000 | – | – | Cc1ccc(C)c(NC(=S)N2CCOCC2)c1 [Compound 5] | – | – | – |

Further lines, the compound ahead of its results:

| Compound | Emax [3, 8] [%] | AC50 [3, 9] [µM] | Emax [3, 10] [%] | AC50 [3, 11] [µM] | binding to TrBgl2 by STD NMR [1] | binding to TrBgl2 by STD NMR in presence of isofagomine [1] | further results |
| --- | --- | --- | --- | --- | --- | --- | --- |
| Cc1cccc(C)c1NC(=S)N1CCOCC1 [Compound 1] | – | – | – | – | showed evidence of binding | binding was also observed | improvement in kcat/KM ([2]; Michaelis-Menten analysis, MUG, in presence of 1 (3 mM) vs absence): approximately 2 fold; AC50 ([3]; MUG substrate 500 μM): 1000 µM and ~1000 µM; Emax ([3]; MUG substrate 500 μM, read-out: Amax (maximal activation obtained)): ~155% |
| COc1ccccc1NC(=S)N1CCOCC1 [Compound 6] | – | – | 143 | > 4000 | – | – | – |
| Cc1cccc(C)c1NC(=S)N1CCCCC1CO (centres unmarked) [Compound 7] | – | – | 161 | 1530 ± 312 | – | – | – |
| CCN(CCO)C(=S)Nc1c(C)cccc1C [Compound 8] | – | – | ≤ 188 | > 4000 | clear signal intensity | clear signal intensity | solubility [4]: ≤ 16 mM; α modifier (nonessential activator model) ([2]; covariation fit, MUG substrate): 0.64; β modifier (nonessential activator model, modifies kcat) ([2]; covariation fit, MUG substrate): 1.5; enhancement of substrate affinity ([2]; in the presence of activator): approximately 1.5 fold; increase of Tm [5, 12]: ~1.2 °C; decrease of Tm [5, 13]: ~1 °C; amide chemical shift changes on addition of compound (1H-15N TROSY) [6]: indicating a specific binding event |
| Cc1cccc(C)c1NC(=S)NCCO [Compound 9] | 128 | > 4000 | – | – | – | – | – |
| S=C(Nc1ccc2nccnc2c1)N1CCOCC1 [Compound 10] | – | – | – | – | clear signal intensity | clear signal intensity | α modifier (reversible mixed inhibition model) ([2]; covariation fit, MUG substrate): 3.65; decrease of Tm [5, 12]: ~4 °C; decrease of Tm [5, 13]: ~4 °C; IC50 [3, 11]: 312 ± 32 µM; inhibition ([3]; titration of compound from 63 µM to 8 mM, substrate conc. 500 µM, read-out: Maximum inhibition): 96%; amide chemical shift changes on addition of compound (1H-15N TROSY) [6]: smaller but similar changes as seen for 8; inhibition of CcBglA [7]: inhibited both enzymes to a similar degree |
| OC[C@H]1CNC[C@@H](O)[C@@H]1O [isofagomine, reference compound] | – | – | – | – | – | – | IC50 ([3]; inhibition of TrBgl2, MUG substrate): 0.53 ± 0.12 µM |

From PMC7702302, “Fragment-derived modulators of an industrial β-glucosidase” (Biochemical Journal, 2020)
